Results published in the kinase profiling compilation of Christmann-Franck et al. (2016).
Several values for one entry are separate records, joined by “and”; a condition that tells them apart may be missing. Equal values may be shown once.

What follows are compounds tested against DAPK1 (human) (UniProt P53355) (assay: radiometric filter-binding kinase assay, Kinase HotSpot). Conditions: compound 0.5 µM; ATP 10 µM.

SMILES	residual activity
N/C(=N\N=C/c1ccc(-c2cccc([N+](=O)[O-])c2)o1)N[N+](=O)[O-]	97.8%
O=C1NC(=O)c2cc(Nc3ccc(F)cc3)c(Nc3ccc(F)cc3)cc21	81.3%
CCCCc1c(-c2ccc(O)cc2)[nH]c2nccnc12	85.3%
O=c1c2ccccc2[nH]c(=S)n1CCN1CCC(=C(c2ccc(F)cc2)c2ccc(F)cc2)CC1	93.8%

What follows are compounds tested against FES (human) (UniProt P07332) in the same assay as above. Conditions: compound 0.5 µM; ATP 10 µM.

SMILES	residual activity
N/C(=N\N=C/c1ccc(-c2cccc([N+](=O)[O-])c2)o1)N[N+](=O)[O-]	101%
O=C1NC(=O)c2cc(Nc3ccc(F)cc3)c(Nc3ccc(F)cc3)cc21	99.5%
CCCCc1c(-c2ccc(O)cc2)[nH]c2nccnc12	64.5%
O=c1c2ccccc2[nH]c(=S)n1CCN1CCC(=C(c2ccc(F)cc2)c2ccc(F)cc2)CC1	94.9%

These compounds were tested against LIMK1 (human) (UniProt P53667) in the same assay as above. Conditions: compound 0.5 µM; ATP 10 µM.

SMILES	residual activity
N/C(=N\N=C/c1ccc(-c2cccc([N+](=O)[O-])c2)o1)N[N+](=O)[O-]	99.7%
O=C1NC(=O)c2cc(Nc3ccc(F)cc3)c(Nc3ccc(F)cc3)cc21	95.9%
CCCCc1c(-c2ccc(O)cc2)[nH]c2nccnc12	64.3%
O=c1c2ccccc2[nH]c(=S)n1CCN1CCC(=C(c2ccc(F)cc2)c2ccc(F)cc2)CC1	98.4%

Each compound was assayed against ALK (human) (UniProt Q9UM73) in the same assay as above. Conditions: compound 0.5 µM; ATP 10 µM.
ALK (human), sequence (Q9UM73 whole entry, looked up): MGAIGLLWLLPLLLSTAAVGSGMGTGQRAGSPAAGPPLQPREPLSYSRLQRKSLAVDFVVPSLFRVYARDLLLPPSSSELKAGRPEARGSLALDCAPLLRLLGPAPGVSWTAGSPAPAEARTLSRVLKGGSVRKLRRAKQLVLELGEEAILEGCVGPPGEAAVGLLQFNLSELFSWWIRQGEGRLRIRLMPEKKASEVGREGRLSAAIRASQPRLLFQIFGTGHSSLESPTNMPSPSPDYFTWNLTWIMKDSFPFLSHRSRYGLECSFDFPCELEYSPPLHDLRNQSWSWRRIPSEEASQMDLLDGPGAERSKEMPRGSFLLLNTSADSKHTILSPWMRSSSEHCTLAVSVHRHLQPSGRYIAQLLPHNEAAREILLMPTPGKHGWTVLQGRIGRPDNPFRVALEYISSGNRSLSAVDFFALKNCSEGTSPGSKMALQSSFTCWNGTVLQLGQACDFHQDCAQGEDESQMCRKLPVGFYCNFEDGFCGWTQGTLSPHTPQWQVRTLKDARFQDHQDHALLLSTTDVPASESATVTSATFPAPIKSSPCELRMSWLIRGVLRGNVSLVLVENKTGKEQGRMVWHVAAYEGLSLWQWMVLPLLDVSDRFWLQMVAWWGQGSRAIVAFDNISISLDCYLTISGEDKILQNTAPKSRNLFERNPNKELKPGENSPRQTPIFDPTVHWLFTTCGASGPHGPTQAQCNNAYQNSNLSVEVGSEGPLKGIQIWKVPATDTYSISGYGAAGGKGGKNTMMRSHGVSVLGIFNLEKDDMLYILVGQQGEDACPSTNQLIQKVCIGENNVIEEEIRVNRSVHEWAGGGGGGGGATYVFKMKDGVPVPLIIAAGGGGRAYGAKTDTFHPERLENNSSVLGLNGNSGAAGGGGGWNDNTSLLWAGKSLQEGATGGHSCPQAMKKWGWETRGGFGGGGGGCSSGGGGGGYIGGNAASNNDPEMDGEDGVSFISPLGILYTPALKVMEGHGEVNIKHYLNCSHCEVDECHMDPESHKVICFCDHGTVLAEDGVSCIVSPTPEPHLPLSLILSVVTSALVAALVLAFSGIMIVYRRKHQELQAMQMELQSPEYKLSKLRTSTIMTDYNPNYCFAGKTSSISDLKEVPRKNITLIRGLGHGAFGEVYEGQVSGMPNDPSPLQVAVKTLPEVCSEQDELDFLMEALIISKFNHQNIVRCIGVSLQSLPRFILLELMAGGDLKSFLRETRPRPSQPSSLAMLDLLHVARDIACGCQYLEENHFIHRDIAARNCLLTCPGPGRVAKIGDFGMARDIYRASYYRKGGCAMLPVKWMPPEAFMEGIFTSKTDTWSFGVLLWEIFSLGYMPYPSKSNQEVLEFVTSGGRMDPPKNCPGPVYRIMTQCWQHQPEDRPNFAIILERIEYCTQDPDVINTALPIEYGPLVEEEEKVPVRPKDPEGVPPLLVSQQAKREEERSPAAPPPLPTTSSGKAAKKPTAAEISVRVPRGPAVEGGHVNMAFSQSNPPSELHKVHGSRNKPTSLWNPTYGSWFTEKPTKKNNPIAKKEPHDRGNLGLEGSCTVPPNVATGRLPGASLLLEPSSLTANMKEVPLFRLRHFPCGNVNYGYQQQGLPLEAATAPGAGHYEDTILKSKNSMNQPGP

SMILES	residual activity
N/C(=N\N=C/c1ccc(-c2cccc([N+](=O)[O-])c2)o1)N[N+](=O)[O-]	93.6%
O=C1NC(=O)c2cc(Nc3ccc(F)cc3)c(Nc3ccc(F)cc3)cc21	92.6%
CCCCc1c(-c2ccc(O)cc2)[nH]c2nccnc12	85%
O=c1c2ccccc2[nH]c(=S)n1CCN1CCC(=C(c2ccc(F)cc2)c2ccc(F)cc2)CC1	104%

These compounds were tested against TYRO3 (human) (UniProt Q06418) in the same assay as above. Conditions: compound 0.5 µM; ATP 10 µM.

SMILES	residual activity
N/C(=N\N=C/c1ccc(-c2cccc([N+](=O)[O-])c2)o1)N[N+](=O)[O-]	91.5%
O=C1NC(=O)c2cc(Nc3ccc(F)cc3)c(Nc3ccc(F)cc3)cc21	94.8%
CCCCc1c(-c2ccc(O)cc2)[nH]c2nccnc12	99.6%
O=c1c2ccccc2[nH]c(=S)n1CCN1CCC(=C(c2ccc(F)cc2)c2ccc(F)cc2)CC1	91.1%

These compounds were tested against CSF1R (human) (UniProt P07333) in the same assay as above. Conditions: compound 0.5 µM; ATP 10 µM.

SMILES	residual activity
N/C(=N\N=C/c1ccc(-c2cccc([N+](=O)[O-])c2)o1)N[N+](=O)[O-]	94.5%
O=C1NC(=O)c2cc(Nc3ccc(F)cc3)c(Nc3ccc(F)cc3)cc21	104%
CCCCc1c(-c2ccc(O)cc2)[nH]c2nccnc12	38.4%
O=c1c2ccccc2[nH]c(=S)n1CCN1CCC(=C(c2ccc(F)cc2)c2ccc(F)cc2)CC1	102%

The compounds below were run against CAMKK2 (human) (UniProt Q96RR4) in the same assay as above. Conditions: compound 0.5 µM; ATP 10 µM.
CAMKK2 (human), sequence (Q96RR4 whole entry, looked up): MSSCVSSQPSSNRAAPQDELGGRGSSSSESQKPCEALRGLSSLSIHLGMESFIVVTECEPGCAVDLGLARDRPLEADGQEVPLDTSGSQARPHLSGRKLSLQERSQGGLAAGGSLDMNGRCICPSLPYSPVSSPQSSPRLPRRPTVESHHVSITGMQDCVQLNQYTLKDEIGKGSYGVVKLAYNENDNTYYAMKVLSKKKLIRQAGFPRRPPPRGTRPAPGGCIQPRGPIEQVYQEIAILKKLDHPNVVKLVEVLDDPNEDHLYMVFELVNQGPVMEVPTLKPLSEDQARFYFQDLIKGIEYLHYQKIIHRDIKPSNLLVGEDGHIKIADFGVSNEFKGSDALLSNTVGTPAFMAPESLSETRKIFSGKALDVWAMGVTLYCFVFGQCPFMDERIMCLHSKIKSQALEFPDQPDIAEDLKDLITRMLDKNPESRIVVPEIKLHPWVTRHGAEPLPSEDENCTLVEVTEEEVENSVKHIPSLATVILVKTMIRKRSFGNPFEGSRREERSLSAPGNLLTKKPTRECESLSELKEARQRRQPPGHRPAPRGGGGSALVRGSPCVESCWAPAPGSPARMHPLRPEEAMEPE

SMILES	residual activity
N/C(=N\N=C/c1ccc(-c2cccc([N+](=O)[O-])c2)o1)N[N+](=O)[O-]	114%
O=C1NC(=O)c2cc(Nc3ccc(F)cc3)c(Nc3ccc(F)cc3)cc21	88.3%
CCCCc1c(-c2ccc(O)cc2)[nH]c2nccnc12	91.7%
O=c1c2ccccc2[nH]c(=S)n1CCN1CCC(=C(c2ccc(F)cc2)c2ccc(F)cc2)CC1	100%

These compounds were tested against RPS6KA4 KD2 (human) (UniProt O75676) in the same assay as above. Conditions: compound 0.5 µM; ATP 10 µM.

SMILES	residual activity
N/C(=N\N=C/c1ccc(-c2cccc([N+](=O)[O-])c2)o1)N[N+](=O)[O-]	98.9%
O=C1NC(=O)c2cc(Nc3ccc(F)cc3)c(Nc3ccc(F)cc3)cc21	102%
CCCCc1c(-c2ccc(O)cc2)[nH]c2nccnc12	87.5%
O=c1c2ccccc2[nH]c(=S)n1CCN1CCC(=C(c2ccc(F)cc2)c2ccc(F)cc2)CC1	103%

These compounds were tested against PIM3 (human) (UniProt Q86V86) in the same assay as above. Conditions: compound 0.5 µM; ATP 10 µM.

SMILES	residual activity
N/C(=N\N=C/c1ccc(-c2cccc([N+](=O)[O-])c2)o1)N[N+](=O)[O-]	114%
O=C1NC(=O)c2cc(Nc3ccc(F)cc3)c(Nc3ccc(F)cc3)cc21	105%
CCCCc1c(-c2ccc(O)cc2)[nH]c2nccnc12	72.8%
O=c1c2ccccc2[nH]c(=S)n1CCN1CCC(=C(c2ccc(F)cc2)c2ccc(F)cc2)CC1	108%

What follows are compounds tested against BRSK1 (human) (UniProt Q8TDC3) in the same assay as above. Conditions: compound 0.5 µM; ATP 10 µM.
BRSK1 (human), sequence (Q8TDC3 whole entry, looked up): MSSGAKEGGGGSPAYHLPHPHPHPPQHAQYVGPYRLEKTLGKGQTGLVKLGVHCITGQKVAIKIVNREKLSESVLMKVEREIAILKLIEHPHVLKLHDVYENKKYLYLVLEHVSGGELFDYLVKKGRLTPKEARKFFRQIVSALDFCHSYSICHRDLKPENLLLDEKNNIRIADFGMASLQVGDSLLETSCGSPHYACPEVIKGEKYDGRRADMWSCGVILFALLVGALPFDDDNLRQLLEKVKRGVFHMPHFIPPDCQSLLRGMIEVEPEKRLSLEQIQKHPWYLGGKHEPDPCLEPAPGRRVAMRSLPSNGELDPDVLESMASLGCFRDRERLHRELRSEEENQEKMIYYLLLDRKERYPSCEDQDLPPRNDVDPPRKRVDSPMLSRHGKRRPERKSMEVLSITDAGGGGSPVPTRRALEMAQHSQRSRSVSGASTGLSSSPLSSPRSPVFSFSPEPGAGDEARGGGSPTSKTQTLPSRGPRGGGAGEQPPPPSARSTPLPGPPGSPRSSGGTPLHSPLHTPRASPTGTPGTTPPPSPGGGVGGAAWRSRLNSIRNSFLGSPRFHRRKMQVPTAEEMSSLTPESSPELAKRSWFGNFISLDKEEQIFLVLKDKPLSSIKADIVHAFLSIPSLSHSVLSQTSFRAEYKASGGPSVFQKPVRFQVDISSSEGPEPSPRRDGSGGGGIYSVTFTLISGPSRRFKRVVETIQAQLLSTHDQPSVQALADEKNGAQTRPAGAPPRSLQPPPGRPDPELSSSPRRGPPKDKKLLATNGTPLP

SMILES	residual activity
N/C(=N\N=C/c1ccc(-c2cccc([N+](=O)[O-])c2)o1)N[N+](=O)[O-]	97.2%
O=C1NC(=O)c2cc(Nc3ccc(F)cc3)c(Nc3ccc(F)cc3)cc21	94.3%
CCCCc1c(-c2ccc(O)cc2)[nH]c2nccnc12	89.1%
O=c1c2ccccc2[nH]c(=S)n1CCN1CCC(=C(c2ccc(F)cc2)c2ccc(F)cc2)CC1	98.3%

What follows are compounds tested against EPHA1 (human) (UniProt P21709) in the same assay as above. Conditions: compound 0.5 µM; ATP 10 µM.

SMILES	residual activity
N/C(=N\N=C/c1ccc(-c2cccc([N+](=O)[O-])c2)o1)N[N+](=O)[O-]	88.9%
O=C1NC(=O)c2cc(Nc3ccc(F)cc3)c(Nc3ccc(F)cc3)cc21	97.4%
CCCCc1c(-c2ccc(O)cc2)[nH]c2nccnc12	68.8%
O=c1c2ccccc2[nH]c(=S)n1CCN1CCC(=C(c2ccc(F)cc2)c2ccc(F)cc2)CC1	107%

The compounds below were run against LYN (human) (UniProt P07948) in the same assay as above. Conditions: compound 0.5 µM; ATP 10 µM.

SMILES	residual activity
N/C(=N\N=C/c1ccc(-c2cccc([N+](=O)[O-])c2)o1)N[N+](=O)[O-]	96.3% and 99.4%
O=C1NC(=O)c2cc(Nc3ccc(F)cc3)c(Nc3ccc(F)cc3)cc21	97.8% and 98.7%
CCCCc1c(-c2ccc(O)cc2)[nH]c2nccnc12	106% and 87.3%
O=c1c2ccccc2[nH]c(=S)n1CCN1CCC(=C(c2ccc(F)cc2)c2ccc(F)cc2)CC1	105% and 108%

What follows are compounds tested against IKBKB (human) (UniProt O14920) in the same assay as above. Conditions: compound 0.5 µM; ATP 10 µM.

SMILES	residual activity
N/C(=N\N=C/c1ccc(-c2cccc([N+](=O)[O-])c2)o1)N[N+](=O)[O-]	86%
O=C1NC(=O)c2cc(Nc3ccc(F)cc3)c(Nc3ccc(F)cc3)cc21	95.6%
CCCCc1c(-c2ccc(O)cc2)[nH]c2nccnc12	103%
O=c1c2ccccc2[nH]c(=S)n1CCN1CCC(=C(c2ccc(F)cc2)c2ccc(F)cc2)CC1	99.5%

These compounds were tested against SLK (human) (UniProt Q9H2G2) in the same assay as above. Conditions: compound 0.5 µM; ATP 10 µM.
SLK (human), sequence (Q9H2G2 whole entry, looked up): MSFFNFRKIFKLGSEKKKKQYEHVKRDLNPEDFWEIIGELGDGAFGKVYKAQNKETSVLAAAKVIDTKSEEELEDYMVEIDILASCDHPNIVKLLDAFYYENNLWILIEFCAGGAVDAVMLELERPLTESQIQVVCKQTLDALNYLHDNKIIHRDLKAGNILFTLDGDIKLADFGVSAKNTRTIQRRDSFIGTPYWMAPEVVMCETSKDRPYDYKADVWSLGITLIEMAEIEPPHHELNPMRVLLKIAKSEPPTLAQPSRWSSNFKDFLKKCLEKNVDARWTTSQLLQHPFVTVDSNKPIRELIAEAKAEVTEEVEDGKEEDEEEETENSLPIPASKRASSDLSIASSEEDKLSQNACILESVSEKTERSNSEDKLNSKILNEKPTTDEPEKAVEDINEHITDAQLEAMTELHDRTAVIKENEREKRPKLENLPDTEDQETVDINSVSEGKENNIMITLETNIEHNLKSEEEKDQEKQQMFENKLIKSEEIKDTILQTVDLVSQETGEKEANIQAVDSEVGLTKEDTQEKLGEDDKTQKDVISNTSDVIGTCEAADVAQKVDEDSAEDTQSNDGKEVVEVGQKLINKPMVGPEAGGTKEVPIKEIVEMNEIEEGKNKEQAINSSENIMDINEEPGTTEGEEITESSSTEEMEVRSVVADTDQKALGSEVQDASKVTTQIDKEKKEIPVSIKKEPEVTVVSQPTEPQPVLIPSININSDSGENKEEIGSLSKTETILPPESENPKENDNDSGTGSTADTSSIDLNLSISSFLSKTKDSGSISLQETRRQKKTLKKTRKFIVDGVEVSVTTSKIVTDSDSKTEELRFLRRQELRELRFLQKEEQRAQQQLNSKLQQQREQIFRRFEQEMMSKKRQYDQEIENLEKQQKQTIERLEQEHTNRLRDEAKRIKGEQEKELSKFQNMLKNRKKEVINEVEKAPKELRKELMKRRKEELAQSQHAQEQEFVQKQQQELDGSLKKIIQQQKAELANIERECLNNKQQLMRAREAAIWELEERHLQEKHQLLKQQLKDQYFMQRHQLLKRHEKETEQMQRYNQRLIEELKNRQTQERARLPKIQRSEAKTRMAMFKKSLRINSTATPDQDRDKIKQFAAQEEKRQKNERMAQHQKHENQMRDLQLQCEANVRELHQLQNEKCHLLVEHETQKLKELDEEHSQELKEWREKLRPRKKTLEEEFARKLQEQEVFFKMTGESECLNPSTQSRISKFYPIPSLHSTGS

SMILES	residual activity
N/C(=N\N=C/c1ccc(-c2cccc([N+](=O)[O-])c2)o1)N[N+](=O)[O-]	101%
O=C1NC(=O)c2cc(Nc3ccc(F)cc3)c(Nc3ccc(F)cc3)cc21	65.5%
CCCCc1c(-c2ccc(O)cc2)[nH]c2nccnc12	77.3%
O=c1c2ccccc2[nH]c(=S)n1CCN1CCC(=C(c2ccc(F)cc2)c2ccc(F)cc2)CC1	103%

These compounds were tested against PAK1 (human) (UniProt Q13153) in the same assay as above. Conditions: compound 0.5 µM; ATP 10 µM.
PAK1 (human), sequence (Q13153 whole entry, looked up): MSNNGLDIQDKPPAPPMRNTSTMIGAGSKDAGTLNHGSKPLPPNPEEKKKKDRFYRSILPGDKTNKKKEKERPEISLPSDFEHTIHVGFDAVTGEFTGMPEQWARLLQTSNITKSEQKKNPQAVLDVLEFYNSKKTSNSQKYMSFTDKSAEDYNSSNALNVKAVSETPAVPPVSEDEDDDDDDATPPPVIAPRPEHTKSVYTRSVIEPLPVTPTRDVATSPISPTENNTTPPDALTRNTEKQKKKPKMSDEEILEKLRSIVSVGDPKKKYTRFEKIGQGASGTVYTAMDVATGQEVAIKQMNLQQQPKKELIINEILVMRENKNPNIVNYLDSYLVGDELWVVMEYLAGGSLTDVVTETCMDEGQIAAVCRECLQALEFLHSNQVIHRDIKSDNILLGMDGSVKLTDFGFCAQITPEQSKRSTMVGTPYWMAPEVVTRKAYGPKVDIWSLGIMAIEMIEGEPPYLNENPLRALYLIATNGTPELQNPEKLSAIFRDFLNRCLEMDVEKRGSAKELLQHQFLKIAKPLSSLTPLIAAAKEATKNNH

SMILES	residual activity
N/C(=N\N=C/c1ccc(-c2cccc([N+](=O)[O-])c2)o1)N[N+](=O)[O-]	91.4%
O=C1NC(=O)c2cc(Nc3ccc(F)cc3)c(Nc3ccc(F)cc3)cc21	95.5%
CCCCc1c(-c2ccc(O)cc2)[nH]c2nccnc12	81.4%
O=c1c2ccccc2[nH]c(=S)n1CCN1CCC(=C(c2ccc(F)cc2)c2ccc(F)cc2)CC1	94.6%

The compounds below were run against MST4 (human) (UniProt Q9P289) in the same assay as above. Conditions: compound 0.5 µM; ATP 10 µM.

SMILES	residual activity
N/C(=N\N=C/c1ccc(-c2cccc([N+](=O)[O-])c2)o1)N[N+](=O)[O-]	99.5%
O=C1NC(=O)c2cc(Nc3ccc(F)cc3)c(Nc3ccc(F)cc3)cc21	99%
CCCCc1c(-c2ccc(O)cc2)[nH]c2nccnc12	79.1%
O=c1c2ccccc2[nH]c(=S)n1CCN1CCC(=C(c2ccc(F)cc2)c2ccc(F)cc2)CC1	91.6%

These compounds were tested against ROS1 (human) (UniProt P08922) in the same assay as above. Conditions: compound 0.5 µM; ATP 10 µM.

SMILES	residual activity
N/C(=N\N=C/c1ccc(-c2cccc([N+](=O)[O-])c2)o1)N[N+](=O)[O-]	97.5%
O=C1NC(=O)c2cc(Nc3ccc(F)cc3)c(Nc3ccc(F)cc3)cc21	92%
CCCCc1c(-c2ccc(O)cc2)[nH]c2nccnc12	26.3%
O=c1c2ccccc2[nH]c(=S)n1CCN1CCC(=C(c2ccc(F)cc2)c2ccc(F)cc2)CC1	98.8%

These compounds were tested against RPS6KA5 KD2 (human) (UniProt O75582) in the same assay as above. Conditions: compound 0.5 µM; ATP 10 µM.

SMILES	residual activity
N/C(=N\N=C/c1ccc(-c2cccc([N+](=O)[O-])c2)o1)N[N+](=O)[O-]	101%
O=C1NC(=O)c2cc(Nc3ccc(F)cc3)c(Nc3ccc(F)cc3)cc21	93.6%
CCCCc1c(-c2ccc(O)cc2)[nH]c2nccnc12	101%
O=c1c2ccccc2[nH]c(=S)n1CCN1CCC(=C(c2ccc(F)cc2)c2ccc(F)cc2)CC1	105%

What follows are compounds tested against WNK2 (human) (UniProt Q9Y3S1) in the same assay as above. Conditions: compound 0.5 µM; ATP 10 µM.

SMILES	residual activity
N/C(=N\N=C/c1ccc(-c2cccc([N+](=O)[O-])c2)o1)N[N+](=O)[O-]	106%
O=C1NC(=O)c2cc(Nc3ccc(F)cc3)c(Nc3ccc(F)cc3)cc21	110%
CCCCc1c(-c2ccc(O)cc2)[nH]c2nccnc12	117%
O=c1c2ccccc2[nH]c(=S)n1CCN1CCC(=C(c2ccc(F)cc2)c2ccc(F)cc2)CC1	96.3%

The compounds below were run against NUAK2 (human) (UniProt Q9H093) in the same assay as above. Conditions: compound 0.5 µM; ATP 10 µM.

SMILES	residual activity
N/C(=N\N=C/c1ccc(-c2cccc([N+](=O)[O-])c2)o1)N[N+](=O)[O-]	95.2%
O=C1NC(=O)c2cc(Nc3ccc(F)cc3)c(Nc3ccc(F)cc3)cc21	112%
CCCCc1c(-c2ccc(O)cc2)[nH]c2nccnc12	64.8%
O=c1c2ccccc2[nH]c(=S)n1CCN1CCC(=C(c2ccc(F)cc2)c2ccc(F)cc2)CC1	106%

Each compound was assayed against MKNK2 (human) (UniProt Q9HBH9) in the same assay as above. Conditions: compound 0.5 µM; ATP 10 µM.

SMILES	residual activity
N/C(=N\N=C/c1ccc(-c2cccc([N+](=O)[O-])c2)o1)N[N+](=O)[O-]	89.3%
O=C1NC(=O)c2cc(Nc3ccc(F)cc3)c(Nc3ccc(F)cc3)cc21	101%
CCCCc1c(-c2ccc(O)cc2)[nH]c2nccnc12	107%
O=c1c2ccccc2[nH]c(=S)n1CCN1CCC(=C(c2ccc(F)cc2)c2ccc(F)cc2)CC1	89.5%
